Data published in patent EP2088149A1 (priority 2006, dated 2008).

How the values were obtained:
[1] = tested on: AMPA receptors; assay: Patch-clamp potentiation of kainate-induced trans-membrane currents in freshly isolated cerebellar Purkinje's neurons; format: cell-based, rat; conditions: for Potentiation of cainate-induced currents (%) / Potentiation of cainate-induced currents (%): blockade: rat cerebellar Purkinje's neurons; for Washing returned the amplitude of responses to the control value: washing time after application of the compound; for Potentiation of cainate-induced currents (%): blockade: 10 µM, values are printed as blockade, without minus sign
Experimental: The inventors used determining the potentiating effect of novel compounds on kainate-induced trans-membrane currents in cerebellar Purkinje's neurons of rats for a directed search for compounds capable of potentiating responses of AMPA receptors (and thereby, to cause improvement of memory and cognitive functions).
Experiments on assessing the effect of substances on AMPA receptors were carried out using the patch-clamp method on freshly isolated Purkinje's neurons isolated from cerebellum of rats (aged 12 to 15 days). A modified method was used for isolation. 400 to 600 µm thick cerebellar slices were placed into a thermostatic 10 ml chamber. A solution for isolation had the following composition (in mM): NaCl 150.0, KCl 5.0; CaCl2 2.0, MgSO4×7H2O 2.0, HEPES 10.0, glucose 15.0, pH 7.42. The slices were incubated in this solution for 60 minutes, and thereafter, the solution was replaced by a similar solution comprising pronase (2 mg/ml) and collagenase (1 mg/ml) and incubated for 70 minutes. After washing with the original solution for 20 minutes, the slices were placed into a Petri plate and separated by a mechanic method using a Pasteur pipette. The solutions were continuously blown-through with 100% O2 at temperature 34°C. Purkinje's neurons were placed into a 0.6 ml working chamber. A process solution had the following composition (in mM): NaCl 150.0, KCl 5.0; CaCl2 2.6, MgSO4×7H2O 2.0, HEPES 10.0, glucose 15.0, pH 7.36.
Trans-membrane currents were induced by activation of AMPA receptors by applying agonist solutions of these receptors, i.e. cainic acid (CA) using a fast superfusion method. Cainic acid is an agonist of AMPA receptors and it is used for studying properties of AMPA receptors, since AMPA as such causes a too strong desensitization of the receptors, and it is not used in such experiments. Currents were recorded using borosilicate micro electrodes (resistance 1.5 to […]) filled with a following composition (in mM): KCl 100.0; EGTA 11.0, CaCl2 1.0, MgCl2 1.0, HEPES 10.0, ATP 5.0, pH 7.2.
The instrument EPC-9 (HEKA, Germany) was used for recoding. Currents were recorded on the PC Pentium-4 hard disc using the Pulse software, also purchased from the HEKA company. Results were processed using the Pulsefit software (HEKA).
Applying KK induced trans-membrane inward currents in Purkinje's neurons. Addition of the compounds of formula I to perfusion solution induced increase in amplitude of the currents. This increase was dependent on a compound, on concentration thereof, on time elapsed following commencement of a compound application.

[2] = Acute toxicity (LD50, Litchfield and Wilcoxon), intraperitoneal, 14 days follow-up; conditions: mouse, in vivo, ip; male white outbred mice, intraperitoneally, follow-up 14 days
Experimental: Acute toxicity of the substances was determined on males of white outbred mice weighing 22 to 26 grams. The substances were administered intraperitoneally as a solution or a suspension in 1% starch solution. Follow-up period was 14 days.

[3] = 0.1 µM, negative values = blockade of the currents
[4] = 1 µM, negative values = blockade of the currents

Row | Structure (SMILES) | Potentiation of cainate-induced currents (%) ([1]; 0.0001 µM) | Potentiation of cainate-induced currents (%) ([1]; 0.001 µM) | Potentiation of cainate-induced currents (%) ([1]; 0.001 µM, listed as 1 (XXXI)) | Potentiation of cainate-induced currents (%) ([1]; 0.01 µM) | Potentiation of cainate-induced currents (%) ([1]; 0.01 µM, listed as 1 (XXXI)) [µM - potentiation by 80%] | Potentiation of cainate-induced currents (%) [1, 3] | Potentiation of cainate-induced currents (%) ([1]; 0.1 µM, negative values = blockade of the currents, listed as 1 (XXXI)) | Potentiation of cainate-induced currents (%) [1, 4] | Potentiation of cainate-induced currents (%) ([1]; 1 µM, negative values = blockade of the currents, listed as 1 (XXXI)) | Washing returned the amplitude of responses to the control value [1] [min] | LD50 at 14 days [2] [mg/kg] | Potentiation of cainate-induced currents (%) ([1]; 0.00001 µM) | Potentiation of cainate-induced currents (%) ([1]; 0.00001 µM, listed as 2 (XXX2)) | Potentiation of cainate-induced currents (%) ([1]; 0.0001 µM, listed as 2 (XXX2)) | Potentiation of cainate-induced currents (%) ([1]; 0.001 µM, listed as 2 (XXX2)) | Potentiation of cainate-induced currents (%) ([1]; 0.01 µM, listed as 2 (XXX2)) | Potentiation of cainate-induced currents (%) ([1]; 0.1 µM, negative values = blockade of the currents, listed as 2 (XXX2)) | Potentiation of cainate-induced currents (%): blockade [1] | Potentiation of cainate-induced currents (%) ([1]; 30 µM)
1 | CC12CN(C(=O)c3ccc4c(c3)OCCO4)CC(C)(CN(C(=O)c3ccc4c(c3)OCCO4)C1)C2=O [Compound 1, 3,7-bis(2,3-dihydro-1,4-benzodioxin-6-ylcarbonyl)-1,5-dimethyl-3,7-diazabicyclo[3.3.1]nonan-9-one] | 0.0001 µM - no potentiation | 40 to 50% | 0.001 µM - potentiation by 40 to 50%, | 80% | 0.01 | 0% | 0.1 µM - 0%, | -20 to -40% | 1 µM - blockade by -20 to -40% | 3 to 5 | 350 | – | – | – | – | – | – | – | –
2 | CC12CN(C(=O)c3ccc4c(c3)OCO4)CC(C)(CN(C(=O)c3ccc4c(c3)OCO4)C1)C2=O [Compound 2, 3,7-bis(1,3-benzodioxol-5-ylcarbonyl)-1,5-dimethyl-3,7-diazabicyclo[3.3.1]nonan-9-one] | 50-90% | 60-140% | – | 0-20% | – | – | – | – | – | 4 to 6 | 140 | 10 | 0.00001 µM -potentiation by 20 to 40% | 0.0001 µM - potentiation by 50 to 90%, | 0.001 µM - potentiation by 60 to 140% | 0.01 µM - potentiation by 0 to 20%, | 0.1 µM - blockade by -20 to -40% | – | –
3 | Cc1nc2ccc(C(=O)N3CC4(C)CN(C(=O)c5ccc6nc(C)c(C)nc6c5)CC(C)(C3)C4=O)cc2nc1C [Compound 3, 3,7-bis[(2,3-dimethylquinoxalin-6-yl)carbonyl]-1,5-dimethyl-3,7-diazabicyclo[3.3.1]nonan-9-one] | 0.0001 µM - no potentiation | 0.001 µM - potentiation by 10 to 15% | – | 0.01 µM - potentiation by 20 to 30%, | – | 0.1 µM - blockade by -20 to -50% | – | 1 µM - no potentiation | – | – | 90 | – | – | – | – | – | – | 10 µM - blockade by 20 to 50% | –
4 | COc1ccc(C(=O)N2CC3(C)CN(C(=O)c4ccc(OC)c(Cn5cccn5)c4)CC(C)(C2)C3=O)cc1Cn1cccn1 [Compound 4] | – | 0.001 µM - no effect | – | 0.01 µM - potentiation by 10 to 30%, | – | 0.1 µM - blockade by -20 to -40% | – | 1 µM - 0% | – | – | 900 | – | – | – | – | – | – | 10 µpM - blockade by 15 to 35% | –
5 | CC12CC3CC(C)(C1)CC(N)(C3)C2 [Memantine, reference compound] | – | – | – | – | – | – | – | – | – | – | 1000 | – | – | – | – | – | – | – | potentiation by 0 to 15% at 30 µM
